Measurements published in US12565501B2, “Muscarinic acetylcholine M1 receptor antagonists” (Contineum Therapeutics, Inc., priority 2019, dated 2026).

Target: T1, human M1 receptor (Homo sapiens, UniProt P11229)
T1 sequence (P11229 1-460): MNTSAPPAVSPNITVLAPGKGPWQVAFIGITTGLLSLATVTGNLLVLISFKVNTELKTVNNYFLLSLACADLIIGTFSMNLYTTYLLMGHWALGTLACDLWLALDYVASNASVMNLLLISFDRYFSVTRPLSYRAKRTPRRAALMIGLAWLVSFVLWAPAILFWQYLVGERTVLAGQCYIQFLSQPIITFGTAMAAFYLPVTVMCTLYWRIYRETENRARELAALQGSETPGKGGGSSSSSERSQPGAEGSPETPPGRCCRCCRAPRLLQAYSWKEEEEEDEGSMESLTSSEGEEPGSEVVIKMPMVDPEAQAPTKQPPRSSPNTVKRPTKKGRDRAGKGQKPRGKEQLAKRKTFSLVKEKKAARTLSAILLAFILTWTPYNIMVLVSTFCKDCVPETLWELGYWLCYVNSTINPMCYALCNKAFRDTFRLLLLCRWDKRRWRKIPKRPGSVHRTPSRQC
Assay: In vitro functional assay of muscarinic acetylcholine receptor activity (aequorin calcium flux, reversal of EC80 acetylcholine response)
Type: cell-based
Conditions: CHO-K1 cells stably expressing human M1 receptor with aequorin; acetylcholine at EC80; calcium flux (luminescence); read-out: M1 IC50
How it was run: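 Antagonist mode: compound (final 0.1% DMSO) and coelenterazine-loaded M1/aequorin CHO-K1 cells incubated 30 min in the dark before EC80 acetylcholine addition. Calcium flash integrated as 40 s luminescence AUC; IC50 derived from dose-response curves.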

Row | Compound | IC50 [nM]
1 | Cc1noc(C)c1C(F)(F)CCC(=O)N1CC2CCC(C1)N2c1ccc(C#N)cn1 [Example 126, 6-(3-(4-(3,5-dimethylisoxazol-4-yl)-4,4-difluorobutanoyl)-3,8-diazabicyclo[3.2.1]octan-8-yl)nicotinonitrile] | < 10
2 | N#Cc1ccc(N2C3CCC2CN(C(=O)CCNC(CO)c2ccc(F)cc2)C3)nc1 [Example 130, 6-((3-(3-(((R)-1-(4-fluorophenyl)-2-hydroxyethyl)amino)propanoyl)-3,8-diazabicyclo[3.2.1]octan-8-yl)nicotinonitrile] | > 1000
3 | N#Cc1ccc(N2C3CCC2CN(C(=O)CCNC(CO)c2ccc(F)cc2)C3)nc1 [Example 131, 6-((3-(3-(((S)1-(4-fluorophenyl)-2-hydroxyethyl)amino)propanoyl)-3,8-diazabicyclo[3.2.1]octan-8-yl)nicotinonitrile] | 1000 to 10000
4 | COc1cc(C(F)(F)/C=C/C(=O)N2CC3CCC(C2)N3c2ccc(C#N)cn2)ccn1 [Example 139, 6-(3-((E)-4,4-difluoro-4-(2-methoxypyridin-4-yl)but-2-enoyl)-3,8-diazabicyclo[3.2.1]octan-8-yl)nicotinonitrile] | < 10
5 | COc1cnccc1C(F)(F)CCC(=O)N1CC2CCC(C1)N2c1ccc(C#N)cn1 [Example 140, 6-(3-(4,4-difluoro-4-(3-methoxypyridin-4-yl)butanoyl)-3,8-diazabicyclo[3.2.1]octan-8-yl)nicotinonitrile] | < 10
6 | COc1ncccc1C(F)(F)/C=C/C(=O)N1C[C@H]2CC[C@@H](C1)N2c1ccc(C#N)cn1 [Example 141, 6-(3-((E)-4,4-difluoro-4-(2-methoxypyridin-3-yl)but-2-enoyl)-3,8-diazabicyclo[3.2.1]octan-8-yl)nicotinonitrile] | < 10
7 | COc1cncc(C(F)(F)/C=C/C(=O)N2CC3CCC(C2)N3c2ccc(C#N)cn2)c1 [Example 142, 6-(3-((E)-4,4-difluoro-4-(5-methoxypyridin-3-yl)but-2-enoyl)-3,8-diazabicyclo[3.2.1]octan-8-yl)nicotinonitrile] | < 10
8 | COc1ccncc1C(F)(F)/C=C/C(=O)N1C[C@H]2CC[C@@H](C1)N2c1ccc(C#N)cn1 [Example 143, 6-(3-((E)-4,4-difluoro-4-(4-methoxypyridin-3-yl)but-2-enoyl)-3,8-diazabicyclo[3.2.1]octan-8-yl)nicotinonitrile] | < 10
9 | COc1cccnc1C(F)(F)/C=C/C(=O)N1C[C@H]2CC[C@@H](C1)N2c1ccc(C#N)cn1 [Example 144, 6-(3-((E)-4,4-difluoro-4-(3-methoxypyridin-2-yl)but-2-enoyl)-3,8-diazabicyclo[3.2.1]octan-8-yl)nicotinonitrile] | < 10
10 | COc1cccc(C(F)(F)CCC(=O)N2CC3CCC(C2)N3c2ccc(C#N)cn2)n1 [Example 145, 6-(3-(4,4-difluoro-4-(6-methoxypyridin-2-yl)butanoyl)-3,8-diazabicyclo[3.2.1]octan-8-yl)nicotinonitrile] | < 10
11 | N#Cc1ccc(N2[C@@H]3CC[C@H]2CN(C(=O)/C=C/C(F)(F)c2cccn4ncnc24)C3)nc1 [Example 146, 6-(3-((E)-4-([1,2,4]triazolo[1,5-a]pyridin-8-yl)-4,4-difluorobut-2-enoyl)-3,8-diazabicyclo[3.2.1]octan-8-yl)nicotinonitrile] | < 10
12 | N#Cc1ccc(N2C3CCC2CN(C(=O)/C=C/C(F)(F)c2cccc4ncnn24)C3)nc1 [Example 148, 6-(-3-((E)-4-([1,2,4]triazolo[1,5-a]pyridin-5-yl)-4,4-difluorobut-2-enoyl)-3,8-diazabicyclo[3.2.1]octan-8-yl)nicotinonitrile] | < 10
13 | [2H]C([2H])([2H])Oc1cc(C(F)(F)/C=C/C(=O)N2CC3CCC(C2)N3c2ccc(C#N)cn2)ccn1 [Example 149, 6-(3-((E)-4,4-difluoro-4-(2-(methoxy-d3)pyridin-4-yl)but-2-enoyl)-3,8-diazabicyclo[3.2.1]octan-8-yl)nicotinonitrile] | < 10
14 | COc1cc(C(F)(F)CCCC(=O)N2CC3CCC(C2)N3c2ccc(C#N)cn2)ccn1 [Example 150, 6-(3-(5,5-difluoro-5-(2-methoxypyridin-4-yl)pentanoyl)-3,8-diazabicyclo[3.2.1]octan-8-yl)nicotinonitrile] | 100 to 1000
15 | COc1cc(C2(/C=C/C(=O)N3CC4CCC(C3)N4c3ccc(C#N)cn3)CCC2)ccn1 [Example 151, 6-(3-((E)-3-(1-(2-methoxypyridin-4-yl)cyclobutyl)acryloyl)-3,8-diazabicyclo[3.2.1]octan-8-yl)nicotinonitrile] | < 10
16 | N#Cc1ccc(N2C3CCC2CN(C(=O)C2CC(O)(c4cccc5ncccc45)C2)C3)nc1 (centres unmarked) [Example 152, 6-(3-(3-hydroxy-3-(quinolin-5-yl)cyclobutane-1-carbonyl)-3,8-diazabicyclo[3.2.1]octan-8-yl)nicotinonitrile] | 1000 to 10000

Row | Compound | IC50 [nM]
17 | COc1cc(C(F)(F)CCC(=O)N2C[C@@H]3C[C@H]2CN3c2ccc(C#N)cn2)ccn1 [Example 154, 6-((1S,4S)-5-(4,4-difluoro-4-(2-methoxypyridin-4-yl)butanoyl)-2,5-diazabicyclo[2.2.1]heptan-2-yl)nicotinonitrile] | 1000 to 10000
18 | COc1cc(C(F)(F)CCC(=O)N2C[C@@H]3CC[C@H]2CN3c2ccc(C#N)cn2)ccn1 [Example 155, 6-((1S,4S)-5-(4,4-difluoro-4-(2-methoxypyridin-4-yl)butanoyl)-2,5-diazabicyclo[2.2.2]octan-2-yl)nicotinonitrile] | 10 to 100
19 | COc1cc(C(F)(F)CCC(=O)N2CC3CCC(C2)N3c2ccnc(C#N)c2)ccn1 [Example 156, 4-(3-(4,4-difluoro-4-(2-methoxypyridin-4-yl)butanoyl)-3,8-diazabicyclo[3.2.1]octan-8-yl)picolinonitrile] | 100 to 1000
20 | COc1cc(C(F)(F)CCC(=O)N2CC3CCC(C2)N3c2ccc(C)nn2)ccn1 [Example 157, 4,4-difluoro-4-(2-methoxypyridin-4-yl)-1-(8-(6-methylpyridazin-3-yl)-3,8-diazabicyclo[3.2.1]octan-3-yl)butan-1-one] | 100 to 1000
21 | COc1ncccc1C(F)(F)CCC(=O)N1CC2CCC(C1)N2c1ccc(C#N)cn1 [Example 159, 6-(3-(4,4-difluoro-4-(2-methoxypyridin-3-yl)butanoyl)-3,8-diazabicyclo[3.2.1]octan-8-yl)nicotinonitrile] | < 10
22 | COc1cncc(C(F)(F)CCC(=O)N2CC3CCC(C2)N3c2ccc(C#N)cn2)c1 [Example 160, 6-(3-(4,4-difluoro-4-(5-methoxypyridin-3-yl)butanoyl)-3,8-diazabicyclo[3.2.1]octan-8-yl)nicotinonitrile] | < 10
23 | COc1ccncc1C(F)(F)CCC(=O)N1CC2CCC(C1)N2c1ccc(C#N)cn1 [Example 161, 6-(3-(4,4-difluoro-4-(4-methoxypyridin-3-yl)butanoyl)-3,8-diazabicyclo[3.2.1]octan-8-yl)nicotinonitrile] | < 10
24 | N#Cc1ccc(N2C3CCC2CN(C(=O)CCC(F)(F)c2cccc4ncnn24)C3)nc1 [Example 163, 6-(3-(4-([1,2,4]triazolo[1,5-a]pyridin-5-yl)-4,4-difluorobutanoyl)-3,8-diazabicyclo[3.2.1]octan-8-yl)nicotinonitrile] | < 10
25 | COc1cc(C2(CCC(=O)N3CC4CCC(C3)N4c3ccc(C#N)cn3)CCC2)ccn1 [Example 164, 6-(3-(3-(1-(2-methoxypyridin-4-yl)cyclobutyl)propanoyl)-3,8-diazabicyclo[3.2.1]octan-8-yl)nicotinonitrile] | < 10
26 | [2H]C([2H])([2H])Oc1cc(C(F)(F)CCC(=O)N2CC3CCC(C2)N3c2ccc(C#N)cn2)ccn1 [Example 165, 6-(3-(4,4-difluoro-4-(2-(methoxy-d3)pyridin-4-yl)butanoyl)-3,8-diazabicyclo[3.2.1]octan-8-yl)nicotinonitrile] | 10 to 100
27 | C[C@@H](OCC(=O)N1C[C@H]2CC[C@@H](C1)N2c1ccc(C#N)cn1)c1ccccc1 [Example 178, 6-(3-(2-((R)-1-phenylethoxy)acetyl)-3,8-diazabicyclo[3.2.1]octan-8-yl)nicotinonitrile] | 100 to 1000
28 | C[C@H](OCC(=O)N1CC2CCC(C1)N2c1ccc(C#N)cn1)c1ccccc1 [Example 179, 6-(3-(2-((S)-1-phenylethoxy)acetyl)-3,8-diazabicyclo[3.2.1]octan-8-yl)nicotinonitrile] | 100 to 1000
29 | N#Cc1ccc(N2C3CCC2CN(C(=O)COC2(c4ccccc4)CC2)C3)nc1 [Example 180, 6-(3-(2-(1-phenylcyclopropoxy)acetyl)-3,8-diazabicyclo[3.2.1]octan-8-yl)nicotinonitrile] | 10 to 100
30 | N#Cc1ccc(N2C3CCC2CN(C(=O)COC2(c4ccccc4Br)CC2)C3)nc1 [Example 181, 6-(3-(2-(1-(2-bromophenyl)cyclopropoxy)acetyl)-3,8-diazabicyclo[3.2.1]octan-8-yl)nicotinonitrile] | 10 to 100
31 | C[C@H](OCC(=O)N1C[C@H]2CC[C@@H](C1)N2c1ccc(C#N)cn1)c1ccc(F)c(F)c1 [Example 182, 6-(3-(2-((S)-1-(3,4-difluorophenyl)ethoxy)acetyl)-3,8-diazabicyclo[3.2.1]octan-8-yl)nicotinonitrile] | 10 to 100
32 | C[C@H](COCC(=O)N1CC2CCC(C1)N2c1ccc(C#N)cn1)c1ccccc1 [Example 186, 6-(3-(2-((S)-2-phenylpropoxy)acetyl)-3,8-diazabicyclo[3.2.1]octan-8-yl)nicotinonitrile] | 1000 to 10000
